Data reported in paper PMC5902452, “In silico optimization of a guava antimicrobial peptide enables combinatorial exploration for peptide design” (Nature Communications, 2018).

Legend:
[1] = system: P. aeruginosa strain PAO1; experiment: Scarification skin infection mouse model; assay type: in vivo, female CD-1 mice
Description: P. aeruginosa strain PAO1 was grown to an optical density at 600 nm (OD600) of 1 in tryptic soy broth medium. Subsequently cells were washed twice with sterile PBS, and resuspended to a final concentration of 5 × 10^7 CFU in 50 μL. To generate skin infection, female CD-1 mice (6 weeks old) were anesthetized with isoflurane and had their backs shaved. A superficial linear skin abrasion was made with a needle in order to damage the stratum corneum and upper layer of the epidermis. Five minutes after wounding, an aliquot of 50 μL containing 5 × 10^7 CFU of bacteria in PBS was inoculated over each defined area containing the scratch with a pipette tip. One day after the infection, peptides were administered to the infected area. Animals were euthanized and the area of scarified skin was excised 2 and 4 days post-infection, homogenized using a bead beater for 20 min (25 Hz), and serially diluted for CFU quantification. Two independent experiments were performed with four mice per group in each case. Statistical significance was assessed using a two-way ANOVA. Animals were maintained in accordance with the Guide for the Care and Use of Laboratory Animals in an AAALAC-accredited facility. All procedures were approved by the MIT’s Institutional Animal Care and Use Committee (IACUC), protocol number 1016-064-19.

erythrocytes = conditions: cited from earlier work

Q: What does the source list for “Pg-AMP1: guava glycine-rich antimicrobial peptide, UniProt P86030, template of the guavanins (RESPSSRMECYEQAERYGYGGYGGGRYGGGYGSGRGQPVGQGVERSHDDNRNQPR; UniProt P86030 1-55, looked up)”?
A: anti-infective activity ([1]; 6.25 μg mL−1, 4 days post-infection): no activity; effect on CFU counts / bacterial load (two-way ANOVA) ([1]; doses 6.25, 25 and 100 µg mL−1, 4 days post-infection, two experiments, four mice per group): significant reduction of bacterial load only at higher concentrations; dose at which activity is kept after 4 days ([1]; wound infection mouse model): 25 µg/mL; hemolytic activity (erythrocytes): hemolytic
